In patent US8513285B2, “3 or 4-substituted piperidine compounds” (SK Biopharmaceuticals Co., Ltd., priority 2008, dated 2013):

What was measured:
[1] = target: T1, human recombinant dopamine transporter (Homo sapiens, UniProt Q01959); experiment: Dopamine transporter reuptake inhibition assay; format: cell-based; details: 100 nM; CHO-K1 cells with human dopamine transporter; [3H]Dopamine uptake; read-out: Inhibition % at 100 nM DA reuptake
T1 construct: expressed in transfected cells; host or cells: CHO-K1
T1 sequence (Q01959 whole entry): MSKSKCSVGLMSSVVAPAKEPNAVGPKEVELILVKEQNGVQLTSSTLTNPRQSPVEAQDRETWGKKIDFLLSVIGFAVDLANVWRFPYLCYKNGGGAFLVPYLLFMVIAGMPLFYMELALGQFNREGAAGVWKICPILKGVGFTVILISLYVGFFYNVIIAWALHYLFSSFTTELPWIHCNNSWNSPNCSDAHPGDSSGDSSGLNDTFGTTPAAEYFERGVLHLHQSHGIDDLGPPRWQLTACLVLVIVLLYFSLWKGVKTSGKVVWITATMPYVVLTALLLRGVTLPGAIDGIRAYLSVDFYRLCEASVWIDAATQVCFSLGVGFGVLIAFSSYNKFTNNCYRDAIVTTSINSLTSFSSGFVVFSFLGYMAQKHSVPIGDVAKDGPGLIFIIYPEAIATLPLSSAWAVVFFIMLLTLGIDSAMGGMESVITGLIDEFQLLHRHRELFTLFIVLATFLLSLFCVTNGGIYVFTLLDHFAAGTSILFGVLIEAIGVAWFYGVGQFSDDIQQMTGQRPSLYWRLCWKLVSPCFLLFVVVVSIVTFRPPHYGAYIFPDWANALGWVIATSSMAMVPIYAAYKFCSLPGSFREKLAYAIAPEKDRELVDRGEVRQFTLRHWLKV
Experimental: Dopamine Transporter Reuptake Inhibition Assay
The assay followed the method modified from Pristupa Z. B. et al., Mol. Pharmacol., 1994, p 125˜135.
CHO-K1 cells with human recombinant dopamine transporter were plated. Test compounds were pre-incubated with cells (4×10^5/ml) in modified Tris-HEPES buffer pH 7.1 for 20 minutes at 25° C. and then they were incubated for additional 10 minutes after 50 nM of [^3H]Dopamine was added. A lysate is obtained from solubilized cells and counted to determine [^3H]Dopamine uptake. Reduction of [^3H]Dopamine uptake by 50 percent or more (≧50%) relative to 10 μM nomifensine indicates significant inhibitory activity. Compounds were tested at 10, 1, 0.1, 0.01 and 0.001 μM for IC50s.

mice [2] = experiment: Marble burying test; format: in vivo; details: 30 min after treatment, vs control group
From the text: The Marble burying test is a screening tool for putative anxiolytics. In this test, control mice naturally bury glass marbles in the cage bedding and the administration of anxiolytic compounds, including Diazepam, reduces the number of buried marbles. Positive compounds in the marble burying test including selective serotonin reuptake inhibitor may be especially beneficial to obsessive-compulsive disorder.
A group of mice was intraperitoneally treated with test compound dissolved in 30% PEG400 with an injection volume of 10 ml/kg. The group treated with only 30% PEG400 served as a control group. Thirty minutes after the treatment, the animals were individually placed in a polycarbonate cage which was same as used for animal housing with an open top located within a quiet room. Each cage consisted of ⅛ inch corn bedding 5 cm deep. Twenty four clean glass marbles (15 mm diameter) were evenly spaced in four rows of six on top of the bedding. Each mouse was left in the cage for 30 minutes and the number of marbles buried (buried more than ½ or ⅔) was counted. The potent ability of the compounds was determined as percent value of reduction in the number of marbles buried comparing to the control group.

[3] = target: T2, human recombinant norepinephrine transporter (Homo sapiens, UniProt P23975); experiment: Norepinephrine transporter reuptake inhibition assay; format: cell-based; details: 100 nM; MDCK cells with human norepinephrine transporter; [3H]Norepinephrine uptake; read-out: Inhibition % at 100 nM NE reuptake
T2 construct: expressed in transfected cells; host or cells: MDCK
T2 sequence (P23975 whole entry): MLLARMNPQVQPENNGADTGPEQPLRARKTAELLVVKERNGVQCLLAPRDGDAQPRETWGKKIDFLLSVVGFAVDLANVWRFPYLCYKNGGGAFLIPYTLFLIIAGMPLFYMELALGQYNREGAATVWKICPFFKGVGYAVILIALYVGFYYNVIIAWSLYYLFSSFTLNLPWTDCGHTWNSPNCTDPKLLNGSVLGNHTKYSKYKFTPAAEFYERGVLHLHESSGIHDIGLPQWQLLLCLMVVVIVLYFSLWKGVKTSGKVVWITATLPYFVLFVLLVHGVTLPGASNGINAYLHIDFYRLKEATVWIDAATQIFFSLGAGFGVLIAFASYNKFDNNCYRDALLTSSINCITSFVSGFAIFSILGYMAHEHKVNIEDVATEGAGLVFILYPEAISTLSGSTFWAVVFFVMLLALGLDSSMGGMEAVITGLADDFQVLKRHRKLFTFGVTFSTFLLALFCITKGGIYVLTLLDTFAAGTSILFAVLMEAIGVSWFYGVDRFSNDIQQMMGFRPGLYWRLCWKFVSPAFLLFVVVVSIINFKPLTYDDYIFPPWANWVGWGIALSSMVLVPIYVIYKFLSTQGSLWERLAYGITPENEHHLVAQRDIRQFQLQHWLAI
Experimental: Norepinephrine Transporter Reuptake Inhibition Assay
Norepinephrine transporter reuptake inhibition assay used the method described by Galli A. et al., J Exp Biol., 1995, 198, p 2197˜2212.
MDCK cells with stably expressed human recombinant norepinephrine transporter were plated one day. Test compounds were pre-incubated with cells (2×10^5/ml) in modified Tris-HEPES buffer pH 7.1 for 20 minutes at 25° C. and then they were incubated for additional 10 minutes after 25 nM of [^3H]Norepinephrine was added. A lysate was obtained from solubilized cells and the filtered lysate was counted to determine [^3H]Norepinephrine uptake. Reduction of [^3H]Norepinephrine uptake by 50 percent or more (≧50%) relative to 10 μM desipramine indicates significant inhibitory activity. Compounds were screened at 10, 1, 0.1, 0.01 and 0.001 μM to determine their IC50s.

[4] = target: T3, human serotonin transporter (Homo sapiens, UniProt P31645); experiment: Serotonin transporter reuptake inhibition assay; format: cell-based; details: HEK293; 100 nM; HEK-293 cells with human serotonin transporter; [3H]Serotonin uptake; read-out: Inhibition % at 100 nM 5-HT reuptake
T3 construct: expressed in transfected cells; host or cells: HEK-293
T3 sequence (P31645 whole entry): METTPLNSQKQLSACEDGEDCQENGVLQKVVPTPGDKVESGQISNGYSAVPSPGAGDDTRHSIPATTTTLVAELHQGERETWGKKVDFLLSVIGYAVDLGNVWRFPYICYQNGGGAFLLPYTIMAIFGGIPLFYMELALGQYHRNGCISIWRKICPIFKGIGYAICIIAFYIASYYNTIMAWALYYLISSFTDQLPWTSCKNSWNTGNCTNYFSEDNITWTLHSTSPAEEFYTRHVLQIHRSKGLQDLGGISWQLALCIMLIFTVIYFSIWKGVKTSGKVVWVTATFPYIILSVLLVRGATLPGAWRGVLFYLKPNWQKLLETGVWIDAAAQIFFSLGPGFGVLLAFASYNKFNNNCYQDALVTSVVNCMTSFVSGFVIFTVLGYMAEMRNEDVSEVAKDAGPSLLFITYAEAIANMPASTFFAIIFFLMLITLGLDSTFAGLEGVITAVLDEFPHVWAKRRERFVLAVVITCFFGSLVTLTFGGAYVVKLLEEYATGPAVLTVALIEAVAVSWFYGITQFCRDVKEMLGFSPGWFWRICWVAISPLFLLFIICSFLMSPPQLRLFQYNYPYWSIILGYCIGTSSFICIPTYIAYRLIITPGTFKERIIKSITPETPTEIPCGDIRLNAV
Experimental: Serotonin Transporter Reuptake Inhibition Assay
The method to test the ability of compounds to inhibit transporters from reuptake of serotonin followed Gu H. et al., J Biol. Chem., 1994, 269, p […].
The recombinant HEK-293 cells with human serotonin transporter were plated. Test compounds were pre-incubated with cells (2×10^5/ml) in modified Tris-HEPES buffer pH 7.1 for 20 minutes at 25° C. and then they were incubated for additional 10 minutes after 65 nM of [^3H]Serotonin was added. Bound cells were filtered and counted to determine [^3H]Serotonin uptake. Reduction of [^3H]Serotonin uptake by 50 percent or more (≧50%) relative to 10 μM fluoxetine indicates significant inhibitory activity. Compounds were screened at 10, 1, 0.1, 0.01 and 0.001 μM for IC50s.

mice [5] = experiment: Forced swimming test in mice (FST); format: in vivo; details: Mus musculus, 0.5 h, 30ip, 30 min after administration, vs control group, read-out: Reduction % at 30ip (duration of immobility)
Experimental: Forced Swimming Test in Mice (FST)
The Forced swimming test is an animal model based on the rodent's behavioral repertoire for screening drugs with potential antidepressant activity. As in several other models used for this goal, an uncontrollable stress stimulus produces behavioral changes that are sensitive to antidepressant treatment.
The mice were intraperitoneally treated with the test compound with an injection volume of […]. The group treated with 30% PEG400 served as a control group. Thirty minutes following administration, mice were individually forced to swim in a transparent glass vessel (14 cm high, 11.5 cm in diameter) filled with 10 cm of water at 25° C. The total duration of immobility (second) was measured during the last 4 minutes of a single 6-min test session. Mice were considered immobile when they made no further attempts to escape other than the movements necessary to keep their heads above the water. The potent ability of the compounds was determined as percent value of reduction in the duration of immobility comparing to the control group.

mice [6] = experiment: Acetic acid induced writhing test (AA writhing test); format: in vivo; details: 30sc, 0.8% acetic acid i.p. 30 min later, vs control group
From the text: Specially the results of Marble burying test (MB) in mice as noted in Table 3 show the compounds of the invention are related to the treatment of anxiety. Acetic Acid Induced Writhing Test (AA Writhing Test)
The Acetic acid-induced writhing test is a well-established nociceptive test using a chemical stimulus. Although several animal models of nociceptive tests have been developed to examine and compare the anti-nociceptive effects of different drugs, the anti-nociceptive effects of antidepressants appear to be test-dependent. Indeed, the acetic acid-induced writhing test is more sensitive to antidepressants than other tests using thermal, mechanical or electrical stimuli.
The animals were subcutaneously treated with the test compound with an injection volume of 10 ml/kg. The group treated with 30% PEG400 or saline served as a control group. Thirty minutes later, the mice were intraperitoneally treated with 0.8% (v/v) acetic acid. Each mouse was then placed in a cage for individual observation. The writhing numbers for 10 minutes were counted. The writhe is operationally defined as a contraction of the abdomen followed by stretching of the hind limbs. The potent ability of the compounds was determined as percent value of reduction in the number of writhing comparing to the control group.

| inhibition at 0.1 µM [1] [%] | inhibition at 0.1 µM [3] [%] | inhibition at 0.1 µM [4] [%] | Compound | Reduction % (number of marbles buried) at 10ip (mice [2]; 10ip) | inhibition in vivo at 30 mg/kg (mice [5]) [%] | Reduction % at 30sc (number of writhing) (mice [6]) [%] | Reduction % at 30ip (number of marbles buried) (mice [2]) [%] |
| --- | --- | --- | --- | --- | --- | --- | --- |
| 92 | 90 | 83 | Cc1nnn([C@@H](c2ccc3ccccc3c2)[C@@H]2CCCNC2)n1 [Example 12, (3R)-3-[(R)-(5-methyl-2H-tetrazol-2-yl)(naphthalen-2-yl)methyl]piperidine] | – | 9.7 | 50.5 | 91.8 |
| 54 | 46 | 92 | Fc1ccc2cc([C@H]([C@H]3CCCNC3)n3ncnn3)ccc2c1 [Example 71] | – | 54 | 48.7 | 86.0 |
| 66 | 78 | 96 | Fc1ccc2cc([C@@H]([C@@H]3CCCNC3)n3ncnn3)ccc2c1 [Example 83, (3R)-3-[(R)-(6-fluoronaphthalen-2-yl)(2H-tetrazol-2-yl)methyl]piperidine] | – | 51.8 | 84.1 | 83.7 |

| Compound | inhibition at 0.1 µM [1] [%] | inhibition at 0.1 µM [3] [%] | inhibition at 0.1 µM [4] [%] | Reduction % (number of marbles buried) at 10ip (mice [2]; 10ip) | inhibition in vivo at 30 mg/kg (mice [5]) [%] | Reduction % at 30sc (number of writhing) (mice [6]) [%] | Reduction % at 30ip (number of marbles buried) (mice [2]) [%] |
| --- | --- | --- | --- | --- | --- | --- | --- |
| c1ccc2cc([C@@H]([C@@H]3CCCNC3)n3ncnn3)ccc2c1 [Example 1, (3R)-3-[(R)-naphthalen-2-yl(2H-tetrazol-2-yl)methyl]piperidine] | 88 | 94 | 81 | 57.5% (at 10ip) | 56.3 | 70.8 | – |
